Legend:
[1] = target: Multidrug resistance-associated protein 1 (Homo sapiens, UniProt P33527); experiment: TP_TRANSPORTER: transepithelial transport (basal to apical) in MRP1-expressing MDCKII cells; type: functional, cell-based; conditions: dog, mdck-ii
[2] = target: ATP-binding cassette sub-family C member 2 (Homo sapiens, UniProt Q92887); experiment: TP_TRANSPORTER: transepithelial transport (basal to apical) in MRP2-expressing MDCKII cells; type: functional, cell-based; conditions: dog, mdck-ii
Chain of ATP-binding cassette sub-family C member 2 (Q92887 whole entry): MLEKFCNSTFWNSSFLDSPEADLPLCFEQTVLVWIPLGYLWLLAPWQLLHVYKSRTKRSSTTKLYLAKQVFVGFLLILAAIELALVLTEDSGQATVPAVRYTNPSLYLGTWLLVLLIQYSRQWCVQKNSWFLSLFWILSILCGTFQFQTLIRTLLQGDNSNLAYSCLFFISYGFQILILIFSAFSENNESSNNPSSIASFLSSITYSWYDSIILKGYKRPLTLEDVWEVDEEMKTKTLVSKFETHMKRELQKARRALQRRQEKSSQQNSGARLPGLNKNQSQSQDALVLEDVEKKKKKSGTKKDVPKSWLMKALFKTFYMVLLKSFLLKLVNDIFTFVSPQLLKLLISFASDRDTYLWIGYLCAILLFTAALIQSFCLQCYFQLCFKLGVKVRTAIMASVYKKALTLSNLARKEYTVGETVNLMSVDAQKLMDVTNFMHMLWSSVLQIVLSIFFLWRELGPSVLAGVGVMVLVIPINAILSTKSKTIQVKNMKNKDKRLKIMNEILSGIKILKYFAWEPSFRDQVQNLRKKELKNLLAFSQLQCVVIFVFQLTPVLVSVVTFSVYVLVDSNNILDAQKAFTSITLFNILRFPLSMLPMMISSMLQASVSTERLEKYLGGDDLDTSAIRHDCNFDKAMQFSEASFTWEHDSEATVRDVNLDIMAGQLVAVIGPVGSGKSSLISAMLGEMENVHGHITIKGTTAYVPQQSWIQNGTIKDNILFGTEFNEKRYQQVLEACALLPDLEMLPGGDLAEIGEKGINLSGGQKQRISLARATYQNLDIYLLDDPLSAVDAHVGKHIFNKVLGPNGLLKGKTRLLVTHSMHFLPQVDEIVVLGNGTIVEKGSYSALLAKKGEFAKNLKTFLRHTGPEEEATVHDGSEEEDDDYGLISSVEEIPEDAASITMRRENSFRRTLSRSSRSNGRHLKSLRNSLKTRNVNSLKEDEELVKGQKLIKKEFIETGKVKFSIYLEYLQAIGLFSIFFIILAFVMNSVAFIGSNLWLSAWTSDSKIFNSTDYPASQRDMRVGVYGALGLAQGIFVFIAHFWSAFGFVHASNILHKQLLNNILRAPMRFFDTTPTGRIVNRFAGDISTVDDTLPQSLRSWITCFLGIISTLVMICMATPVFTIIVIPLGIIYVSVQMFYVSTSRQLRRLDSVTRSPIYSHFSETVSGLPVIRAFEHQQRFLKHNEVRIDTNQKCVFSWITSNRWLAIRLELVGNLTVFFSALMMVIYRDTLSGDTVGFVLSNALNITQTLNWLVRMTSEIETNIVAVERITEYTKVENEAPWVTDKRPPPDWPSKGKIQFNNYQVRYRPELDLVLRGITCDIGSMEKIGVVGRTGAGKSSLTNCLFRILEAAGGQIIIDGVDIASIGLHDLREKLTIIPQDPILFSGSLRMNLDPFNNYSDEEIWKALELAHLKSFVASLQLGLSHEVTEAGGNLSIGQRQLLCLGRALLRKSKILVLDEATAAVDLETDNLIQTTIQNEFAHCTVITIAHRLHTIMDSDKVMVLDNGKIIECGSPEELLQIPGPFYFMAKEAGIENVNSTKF

Chain of Multidrug resistance-associated protein 1 (P33527 whole entry): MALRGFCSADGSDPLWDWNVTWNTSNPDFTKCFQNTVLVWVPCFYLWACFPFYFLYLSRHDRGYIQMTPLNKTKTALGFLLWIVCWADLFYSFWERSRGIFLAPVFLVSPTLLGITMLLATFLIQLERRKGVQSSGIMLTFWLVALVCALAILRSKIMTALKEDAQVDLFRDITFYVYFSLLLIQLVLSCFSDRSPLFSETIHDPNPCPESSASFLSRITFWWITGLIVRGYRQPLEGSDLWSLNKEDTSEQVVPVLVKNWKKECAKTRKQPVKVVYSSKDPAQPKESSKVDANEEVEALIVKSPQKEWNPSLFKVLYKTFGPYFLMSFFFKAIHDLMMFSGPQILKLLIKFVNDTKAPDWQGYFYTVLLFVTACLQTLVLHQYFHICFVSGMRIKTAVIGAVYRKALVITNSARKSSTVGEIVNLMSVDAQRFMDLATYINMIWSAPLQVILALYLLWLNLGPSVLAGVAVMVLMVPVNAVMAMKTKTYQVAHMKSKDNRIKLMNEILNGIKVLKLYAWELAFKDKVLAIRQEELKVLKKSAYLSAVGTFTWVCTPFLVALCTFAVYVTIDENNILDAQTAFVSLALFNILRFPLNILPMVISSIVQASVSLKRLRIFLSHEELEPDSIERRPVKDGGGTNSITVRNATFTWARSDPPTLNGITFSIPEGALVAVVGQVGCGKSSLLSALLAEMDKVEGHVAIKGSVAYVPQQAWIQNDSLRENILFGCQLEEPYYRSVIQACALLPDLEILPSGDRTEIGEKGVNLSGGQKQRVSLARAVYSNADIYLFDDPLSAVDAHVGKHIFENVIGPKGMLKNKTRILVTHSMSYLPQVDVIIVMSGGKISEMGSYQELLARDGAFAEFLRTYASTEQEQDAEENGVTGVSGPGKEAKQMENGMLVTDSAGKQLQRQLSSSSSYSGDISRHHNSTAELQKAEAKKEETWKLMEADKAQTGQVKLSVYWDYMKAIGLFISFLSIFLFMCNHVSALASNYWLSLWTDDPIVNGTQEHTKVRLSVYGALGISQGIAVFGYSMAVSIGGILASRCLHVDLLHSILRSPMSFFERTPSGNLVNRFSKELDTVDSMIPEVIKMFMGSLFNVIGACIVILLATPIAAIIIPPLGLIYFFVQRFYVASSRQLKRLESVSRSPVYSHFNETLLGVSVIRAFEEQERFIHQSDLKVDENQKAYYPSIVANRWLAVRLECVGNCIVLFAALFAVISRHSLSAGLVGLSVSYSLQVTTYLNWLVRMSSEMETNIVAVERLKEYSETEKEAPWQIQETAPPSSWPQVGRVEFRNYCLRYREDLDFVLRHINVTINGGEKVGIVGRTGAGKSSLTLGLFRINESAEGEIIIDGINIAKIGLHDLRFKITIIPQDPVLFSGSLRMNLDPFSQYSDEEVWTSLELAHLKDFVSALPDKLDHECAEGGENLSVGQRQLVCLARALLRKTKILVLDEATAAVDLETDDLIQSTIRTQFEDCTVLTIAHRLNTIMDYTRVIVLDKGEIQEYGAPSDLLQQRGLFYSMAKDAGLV

- Activity [1]: substrate [+]
- Activity [2]: substrate [+]
Structure (SMILES): CC(C)(C)NC(=O)[C@@H]1C[C@@H]2CCCC[C@@H]2CN1C[C@@H](O)[C@H](Cc1ccccc1)NC(=O)[C@H](CC(N)=O)NC(=O)c1ccc2ccccc2n1 [SAQUINAVIR]

Reference: ChEMBL document CHEMBL2073769, “Direct evidence that saquinavir is transported by multidrug resistance-associated protein (MRP1) and canalicular multispecific organic anion transporter (MRP2)” (Antimicrob Agents Chemother, 2002)
